From patent publication US6783541B2, “Methods for inhibiting or suppressing stenosis of arteriovenous access fistulas and grafts” (Miravant Medical Technologies, Inc., priority 2001, dated 2004) come the findings set out here.

Data set [1] concerns stenosis in a canine model of prosthetic AV access graft. Put plainly: PDT in a canine model of prosthetic AV access graft. It counts as in vivo, female mongrel dogs. Here is the method:
The work described below was undertaken to evaluate the effects of application of an embodiment of the method of the present invention on the suppression of stenosis in a canine model of prosthetic AV access graft.
Initial studies using light-treatment without MV6401 confirmed no effect on the stenosis. Bilateral femoral PTFE AV access grafts were implanted in four female mongrel dogs. MV6401 (2 mg/kg, IV) was given one hour prior to the operation, and PDT was administered using an endolumenal non-thermal balloon catheter light source immediately after AV access graft placement. The contralateral side received a sham balloon treatment without light activation. The animals were sacrificed four weeks after the treatment, at which time the grafts were harvested, sectioned and examined by histology. Venous anastomotic sites were graded by an individual blinded to the treatment parameters and graded on a categorical scale (0-5) of lesion progression. Thickness of the stenotic lesion was determined using computer morphometry.

Data set [2] in a line: Preliminary uptake studies by HPLC and fluorescence microscopy.

Regarding `C=Cc1c(C)c2[n]3c1=CC1=NC(=Cc4c(C)c5c([n]4[In]3[Cl])C(=C3N=C(C=2)[C@@H](C)[C@@H]3CCC(=O)OC)CC5=O)C(CC)=C1C` [MV6401], in data set [1] (MV6401 2 mg/kg IV 1 h before operation, endolumenal balloon light, 4 weeks after treatment, sham side without light 2.25±0.08, P=0.02), the “graft fibrosis grade at venous anastomotic site (categorical scale 0-5)” value was found to be 1.13±0.15. In data set [1] (MV6401 2 mg/kg IV plus light, 4 weeks after PDT, computer morphometry, sham side without light 1.51±0.11 mm, P=0.006), the “thickness of the stenotic lesions at the venous anastomosis” value is on record as 0.49±0.06 mm. Moreover, the “long term detrimental effects” value in data set [1] (PDT dose sufficient to substantially deplete cell population in vessel wall) is “no detrimental long term effects noted”. Besides, the “acellularity in the vessel wall” value in data set [1] (PDT dose used (MV6401 2 mg/kg IV plus light)) is recorded as “substantial acellularity in the vessel wall”. Besides, the “AV access graft patency” value in data set [1] (four weeks after treatment) was “patent and fully functioning”. The “incorporation of drug into tissue” value in data set [2] was “incorporation into stenotic lesions and surrounding vessel wall”.
